Test results published in US10966426B2, “Herbicidal compositions comprising phenylpyrimidines” (BASF SE, priority 2016, dated 2021).
Values joined by “and” are separate entries in the source; they are usually repeats but may differ in a detail not shown here. Identical values can stand only once.

Experiments:
Format in all cases: in vivo
[1] = tested on: Poa annua; assay: greenhouse pre-emergence treatment, POAAN; settings: 20 DAT
In short: (§1)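 Pre-emergence spray of compounds, alone or as combinations formulated as 10% emulsion concentrate in water, directly after sowing in loamy sand (~3.0% humus); pots hooded until rooting, kept at 10-25° C or 20-35° C per species for 2 to 4 weeks. Damage scored 0-100 (100 = no emergence/complete destruction); Colby expected value E=X+Y−(X·Y/100).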

[2] = tested on: Alopecurus myosuroides; assay: greenhouse pre-emergence treatment, ALOMY; settings: 20 DAT
In short: as §1

[3] = tested on: Matricaria chamomilla; assay: greenhouse pre-emergence treatment, MATCH; settings: 20 DAT
Description: The culture containers used were plastic pots containing loamy sand with approximately 3.0% of humus as substrate. The seeds of the test plants were sown separately for each species.
For the pre-emergence treatment, the active compounds, suspended or emulsified in water, were applied directly after sowing by means of finely distributing nozzles. The containers were irrigated gently to promote germination and growth and subsequently covered with transparent plastic hoods until the plants had rooted. This cover caused uniform germination of the test plants unless this was adversely affected by the active compounds.
Depending on the species, the plants were kept at 10-25° C. and 20-35° C., respectively.
The test period extended over 2 to 4 weeks. During this time, the plants were tended and their response to the individual treatments was evaluated.
Evaluation was carried out using a scale from 0 to 100. 100 means no emergence of the plants, or complete destruction of at least the above-ground parts, and 0 means no damage or normal course of growth. A good herbicidal activity is given at values of at least 70, and very good herbicidal activity is given at values of at least 85.
The respective stated components A and B, and if appropriate, C were formulated as a 10% by weight strength emulsion concentrate and, with addition of the amount of solvent system, introduced into the spray liquor used for applying the active compound. In the examples, the solvent used was water.
In the examples below, using the method of S. R. Colby (1967) “Calculating synergistic and antagonistic responses of herbicide combinations”, Weeds 15, p. 22ff., the value E, which is expected if the activity of the individual active compounds is only additive, was calculated. E=X+Y−(X·Y/100) where X=effect in percent using herbicide A at an application rate a; • Y=effect in percent using herbicide B at application rate b; • E=expected effect (in %) of herbicide A+herbicide B at application rates a+b.

[4] = tested on: Helianthus annuus; assay: greenhouse pre-emergence treatment, HELAN; settings: HELAN
In short: as §1

[5] = tested on: Lolium multiflorum; assay: greenhouse pre-emergence treatment, LOLMU
In short: as §1

[6] = tested on: Polygonum convolvulus; assay: greenhouse pre-emergence treatment, POLCO
In short: as §1

[7] = tested on: Galium aparine; assay: greenhouse pre-emergence treatment, GALAP
In short: as §1

[8] = tested on: Echinocloa crus-galli; assay: greenhouse pre-emergence treatment, ECHCG
In short: as §1

[9] = tested on: Apera spica-venti; assay: greenhouse pre-emergence treatment, APESV
In short: as §1

[10] = tested on: Apera spica-venti; assay: greenhouse post-emergence treatment, APESV
In short: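 Each species was grown separately and treated once it reached 3 to 15 cm, using actives suspended or emulsified in water. Plants were kept at 10-25° C. or 20-35° C., depending on species. Damage is a 0–100 rating taken during 2 to 4 weeks.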

[11] = 20 DAT, Ex. 26 solo 31.25 gai/ha
[12] = 20 DAT, Ex. 26 solo 62.5 gai/ha
[13] = Ex. 26 solo, 125 gai/ha, 20 DAT
[14] = 20 DAT, solo Ex. 26 62.5 gai/ha
[15] = Ex. 26 solo 31.25 gai/ha, 20 DAT
[16] = Ex. 26 solo 62.5 gai/ha, 20 DAT

Measured: % activity

COC(=O)c1nc(C2CC2)ncc1-c1ccc(F)cc1Cl [Ex. 26]
20%: [4]; [12]
85%: [2]; solo Ex. 26 62.5 gai/ha
80%: [2]; Ex. 26 solo, 62.5 gai/ha | [10]; 20 DAT, APESV, Ex. 26 solo 250 gai/ha
0%: [3]; Ex. 26 solo 62.5 gai/ha | [3]; Ex. 26 solo 125 gai/ha | [4]; [11] | [4]; 20 DAT, Ex. 26 solo 125 gai/ha | [4]; 21 DAT, Ex. 26 solo 125 gai/ha | [4]; 21 DAT, Ex. 26 solo 250 gai/ha | [4]; Ex. 26 solo 125 gai/ha, 21 DAT | [4]; Ex. 26 solo 250 gai/ha, 21 DAT | [4]; Ex. 26 solo, 62.5 gai/ha, 20 DAT | [4]; [13] | [4]; [14] | [4]; [15] | [4]; [16] | [4]; Ex. 26 solo 125 gai/ha, 20 DAT | [5]; Ex. 26 solo, 31.25 gai/ha, 20 DAT, LOLMU | [5]; Ex. 26 solo, 62.5 gai/ha, 20 DAT, LOLMU | [5]; Ex. 26 solo, 125 gai/ha, 20 DAT, LOLMU | [5]; LOLMU, 20 DAT, solo Ex. 26 62.5 gai/ha | [5]; LOLMU, 20 DAT, solo Ex. 26 62.5 gai/ha (Table X68) | [5]; LOLMU, 20 DAT, solo Ex. 26 125 gai/ha | [5]; LOLMU, Ex. 26 solo 31.25 gai/ha, 20 DAT | [5]; LOLMU, Ex. 26 solo 62.5 gai/ha, 20 DAT | [6]; [12] | [6]; 20 DAT, Ex. 26 solo 125 gai/ha | [6]; 20 DAT, POLCO, Ex. 26 solo 31.25 gai/ha | [6]; 20 DAT, POLCO, Ex. 26 solo 62.5 gai/ha | [6]; 20 DAT, POLCO, Ex. 26 solo 125 gai/ha | [6]; Ex. 26 solo 62.5 gai/ha, 20 DAT, POLCO | [6]; Ex. 26 solo 125 gai/ha, 20 DAT, POLCO | [6]; Ex. 26 solo, 62.5 gai/ha, 20 DAT, POLCO | [6]; Ex. 26 solo, 125 gai/ha, 20 DAT, POLCO | [6]; POLCO, 20 DAT, solo Ex. 26 62.5 gai/ha | [6]; POLCO, 20 DAT, solo Ex. 26 125 gai/ha | [6]; POLCO, Ex. 26 solo 125 gai/ha, 20 DAT | [7]; [11] | [7]; [12] | [7]; 20 DAT, Ex. 26 solo 125 gai/ha | [7]; 20 DAT, GALAP, Ex. 26 solo 31.25 gai/ha | [7]; 20 DAT, GALAP, Ex. 26 solo 62.5 gai/ha | [7]; 20 DAT, GALAP, Ex. 26 solo 125 gai/ha | [7]; 20 DAT, GALAP, Ex. 26 solo 250 gai/ha | [7]; Ex. 26 solo, 31.25 gai/ha, 20 DAT, GALAP | [7]; Ex. 26 solo, 62.5 gai/ha, 20 DAT, GALAP | [7]; Ex. 26 solo, 125 gai/ha, 20 DAT, GALAP | [7]; GALAP, 20 DAT, solo Ex. 26 125 gai/ha | [7]; GALAP, Ex. 26 solo 62.5 gai/ha, 20 DAT | [7]; GALAP, Ex. 26 solo 125 gai/ha, 20 DAT | [7]; GALAP, Ex. 26 solo 250 gai/ha, 20 DAT
10%: [5]; [11] | [5]; 20 DAT, LOLMU, Ex. 26 solo 62.5 gai/ha
75% and 90%: [1]; Ex. 26 solo 62.5 gai/ha
70%: [1]; solo Ex. 26 62.5 gai/ha | [8]; [16] | [9]; 20 DAT, solo Ex. 26 125 gai/ha (Table X68) | [9]; [13] | [10]; 20 DAT, APESV, Ex. 26 solo 62.5 gai/ha | [10]; Ex. 26 solo 125 gai/ha, 20 DAT, APESV
65%: [1]; solo Ex. 26 125 gai/ha | [1]; Ex. 26 solo, 125 gai/ha | [9]; Ex. 26 solo 125 gai/ha, 20 DAT | [10]; 21 DAT, Ex. 26 solo 125 gai/ha
30%: [1]; Ex. 26 solo, 31.25 gai/ha | [5]; Ex. 26 solo 62.5 gai/ha, 20 DAT, LOLMU | [5]; LOLMU, Ex. 26 solo 125 gai/ha, 20 DAT | [6]; 20 DAT, POLCO, Ex. 26 solo 250 gai/ha | [6]; POLCO, Ex. 26 solo 250 gai/ha, 20 DAT
75%: [9]; 20 DAT, solo Ex. 26 125 gai/ha | [10]; 20 DAT, APESV, Ex. 26 solo 125 gai/ha | [10]; 21 DAT, Ex. 26 solo 250 gai/ha | [10]; APESV, Ex. 26 solo 250 gai/ha, 20 DAT | [10]; Ex. 26 solo 250 gai/ha, 20 DAT, APESV
90%: [8]; 20 DAT, Ex. 26 solo 125 gai/ha | [8]; Ex. 26 solo 125 gai/ha, 20 DAT | [9]; 20 DAT, Ex. 26 solo 125 gai/ha
75% and 70%: [10]; APESV, Ex. 26 solo 125 gai/ha, 20 DAT
60%: [2]; Ex. 26 solo 62.5 gai/ha | [2]; Ex. 26 solo, 31.25 gai/ha | [8]; [14] | [10]; Ex. 26 solo 62.5 gai/ha, 20 DAT, APESV
50%: [8]; [11] | [8]; [15] | [8]; Ex. 26 solo, 31.25 gai/ha, 20 DAT
